Assay results: the SangsterLogP compilation

Assay: method code SF-HPLC, from DOI: 10.1002/jps.2600750109, PMID: 3958903
Conditions: pH 7.4

SMILES | logD
CCC(C(=O)OCc1ccccc1)C(CO)Cc1cncn1C (stereo unspecified) | 1.97
CCCCOC(=O)[C@@H](CC)[C@H](CO)Cc1cncn1C | 1.73
CCC(C(=O)OCCc1ccccc1)C(CO)Cc1cncn1C (stereo unspecified) | 2.31
O=C(NCN1CCOCC1)c1ccccc1O | 1.27
CC[C@H](C(=O)OCc1ccccc1C)[C@H](CO)Cc1cncn1C | 2.42
CCC(C(=O)OC(C)c1ccccc1)C(CO)Cc1cncn1C (stereo unspecified) | 2.23
CCCCCCOC(=O)C(CC)C(CO)Cc1cncn1C (stereo unspecified) | 2.71
CC[C@H](C(=O)OCc1ccc(C)cc1)[C@H](CO)Cc1cncn1C | 2.46
CCOC(=O)CC(CO)C(CC)c1cncn1C (stereo unspecified) | 0.73
CC[C@H](C(=O)OCc1ccc(Cl)cc1)[C@H](CO)Cc1cncn1C | 2.69
CC(C)(C)C(=O)OCOc1ccccc1C(=O)NCN1CCOCC1 | 1.81
